Experimental data as given in patent US20040058956A1, “Pharmaceutical composition having an improved water solubility” (priority 2000, published 2004).

**Q.** Which melting point does the source give for `Fc1ccc(/C=C/c2nc(COc3cccc(CCCn4ccnn4)c3)co2)cc1` [B3, 1-{3-[3-({2-[(E)-2-(4-fluorophenyl)ethenyl]-1,3-oxazol-4-yl}methoxy)phenyl]propyl}-1H-1,2,3-triazole] here?
**A.** The melting point was 105 to 106 °C.

**Q.** Which melting point does the source give for `FC(F)(F)c1ccc(/C=C/c2nc(COc3ccc(CCCn4ccnn4)cc3)co2)cc1` [B5, 1-(3-{4-[(2-{(E)-2-[4-(trifluoromethyl)phenyl]ethenyl}-1,3-oxazol-4-yl)methoxy]phenyl}propyl)-1H-1,2,3-triazole] here?
**A.** Its melting point is 157 to 158 °C.

**Q.** For `Fc1ccc(/C=C/c2nc(COc3ccc(CCCCn4ccnn4)cc3)co2)c(F)c1` [B7, 1-{4-[4-({2-[(E)-2-(2,4-difluorophenyl)ethenyl]-1,3-oxazol-4-yl}methoxy)phenyl]butyl}-1H-1,2,3-triazole], which melting point is on record?
**A.** The melting point was 115 to 117 °C.

**Q.** For `Fc1ccc(/C=C/c2nc(COc3cccc(CCCn4ccnn4)c3)co2)c(F)c1` [B8, 1-{3-[3-({2-[(E)-2-(2,4-difluorophenyl)ethenyl]-1,3-oxazol-4-yl}methoxy)phenyl]propyl}-1H-1,2,3-triazole], which melting point is on record?
**A.** The melting point was 89 to 90 °C.

**Q.** Which melting point does the source give for `Cc1ccc(/C=C/c2nc(COc3ccc(CCCCn4ccnc4CCO)cc3)co2)cc1` [B10, 2-[1-[4-[4-[[2-[(E)-2-(4-methylphenyl)ethenyl]-1,3-oxazol-4-yl]methoxy]phenyl]butyl]-1H-imidazol-2-yl]-1-ethanol] here?
**A.** The melting point was 108 to 109 °C.

**Q.** With `Cc1cccc(/C=C/c2nc(COc3ccc(CCCCn4ccnc4CCO)cc3)co2)c1` [B11, 2-[1-[4-[4-[[2-[(E)-2-(3-methylphenyl)ethenyl]-1,3-oxazol-4-yl]methoxy]phenyl]butyl]-1H-imidazol-2-yl]-1-ethanol] as the compound, how does the melting point read?
**A.** The melting point was 109 to 111 °C.

**Q.** With `CCc1ccc(/C=C/c2nc(COc3ccc(CCCCn4ccnc4CCO)cc3)co2)cc1` [B13, 2-[1-[4-[4-[[2-[(E)-2-(4-ethylphenyl)ethenyl]-1,3-oxazol-4-yl]methoxy]phenyl]butyl]-1H-imidazol-2-yl]-1-ethanol] as the compound, how does the melting point read?
**A.** The melting point was 94 to 95 °C.

**Q.** With `OCCc1nccn1CCCCc1ccc(OCc2coc(/C=C/c3ccc(F)cc3)n2)cc1` [B14, 2-(1-{4-[4-({2-[(E)-2-(4-fluorophenyl)ethenyl]-1,3-oxazol-4-yl}methoxy)phenyl]butyl}-1H-imidazol-2-yl)-1-ethanol] as the compound, how does the melting point read?
**A.** The melting point was 130 to 132 °C.

**Q.** With `OCCc1nccn1CCCCc1ccc(OCc2coc(/C=C/c3ccc(Cl)cc3)n2)cc1` [B15, 2-[1-[4-[4-[[2-[(E)-2-(4-chlorophenyl)ethenyl]-1,3-oxazol-4-yl]methoxy]phenyl]butyl]-1H-imidazol-2-yl]-1-ethanol] as the compound, how does the melting point read?
**A.** Its melting point is 127 to 128 °C.

**Q.** With `OCCc1nccn1CCCCc1ccc(OCc2coc(/C=C/c3ccc(Br)cc3)n2)cc1` [B16, 2-[1-[4-[4-[[2-[(E)-2-(4-bromophenyl)ethenyl]-1,3-oxazol-4-yl]methoxy]phenyl]butyl]-1H-imidazol-2-yl]-1-ethanol] as the compound, how does the melting point read?
**A.** The melting point was 149 to 150 °C.

**Q.** With `OCCc1nccn1CCCc1ccc(OCc2coc(/C=C/c3ccc(F)cc3F)n2)cc1` [B20, 2-[1-[3-[4-[[2-[(E)-2-(2,4-difluorophenyl)ethenyl]-1,3-oxazol-4-yl]methoxy]phenyl]propyl]-1H-imidazol-2-yl]-1-ehtanol] as the compound, how does the melting point read?
**A.** The melting point was 94 to 96 °C.

**Q.** With `Cc1cccc(/C=C/c2nc(COc3ccc(CCCCn4ccnc4CC(O)CO)cc3)co2)c1` (stereo not shown) [B22, 3-(1-{4-[4-({2-[(E)-2-(3-methylpheyl)ethenyl]-1,3-oxazol-4-yl}methoxy)phenyl]butyl}-1H-imidazol-2-yl)-1,2-propanediol] as the compound, how does the melting point read?
**A.** The melting point was 102 to 104 °C.

**Q.** Which melting point does the source give for `OCC(O)Cc1nccn1CCCCc1ccc(OCc2coc(/C=C/c3ccc(F)cc3)n2)cc1` (stereo not shown) [B23, 3-(1-{4-[4-({2-[(E)-2-(4-fluorophenyl)ethenyl]-1,3-oxazol-4-yl}methoxy)phenyl]butyl}-1H-imidazol-2-yl)-1,2-propanediol] here?
**A.** Its melting point is 114 to 116 °C.

**Q.** Which melting point does the source give for `OCC(O)Cc1nccn1CCCCc1ccc(OCc2coc(/C=C/c3ccc(C(F)(F)F)cc3)n2)cc1` (stereo not shown) [B24, 3-[1-(4-{4-[(2-{(E)-2-{4-(trifluoromethyl)phenyl}ethenyl}-1,3-oxazol-4-yl)methoxy]phenyl}butyl]-1H-imidazol-2-yl]-1,2-propanediol] here?
**A.** The melting point was 142 to 143 °C.

**Q.** With `OCC(O)Cc1nccn1CCCc1cccc(OCc2coc(/C=C/c3ccc(C(F)(F)F)cc3)n2)c1` (stereo not shown) [B25, 3-[1-(3-{3-[(2-{(E)-2-[4-(trifluoromethyl)phenyl]ethenyl}-1,3-oxazol-4-yl)methoxy]phenyl}propyl)-1H-imidazol-2-yl]-1,2-propanediol] as the compound, how does the melting point read?
**A.** The melting point was 102 to 104 °C.

**Q.** For `OCC(O)Cc1nccn1CCCc1cccc(OCc2coc(/C=C/c3ccc(F)cc3F)n2)c1` (stereo not shown) [B27, 3-(1-{3-[3-({2-[(E)-2-(2,4-difluorophenyl)ethenyl]-1,3-oxazol-4-yl}methoxy)phenyl]propyl}1H-imidazol-2-yl)-1,2-propanediol], which melting point is on record?
**A.** Its melting point is 92 to 94 °C.

**Q.** With `OCC(O)Cc1nccn1CCCCc1ccc(OCc2coc(/C=C/c3c(F)cccc3F)n2)cc1` (stereo not shown) [B28, 3-[1-[4-[4-[[2-[(E)-2-(2,6-difluorophenyl)ethenyl]-1,3-oxazol-4-yl]methoxy]phenyl]butyl]-1H-imidazol-2-yl]-1,2-propanediol] as the compound, how does the melting point read?
**A.** The melting point was 123 to 125 °C.

**Q.** Which melting point does the source give for `Fc1ccc(/C=C/c2nc(COc3ccc(CCCCn4ccnn4)cc3)co2)cc1` [Reference Example B2, 1-{4-[4-({2-[(E)-2-(4-fluorophenyl)ethenyl]-1,3-oxazol-4-yl}methoxy)phenyl]butyl}-1H-1,2,3-triazole] here?
**A.** Its melting point is 124 to 125 °C.

**Q.** With `FC(F)(F)c1ccc(/C=C/c2nc(COc3cccc(CCCn4ccnn4)c3)co2)cc1` [Reference Example B6, 1-(3-{3-[(2-{(E)-2-[4-(trifluoromethyl)phenyl]ethenyl}-1,3-oxazol-4-yl)methoxy]phenyl}propyl)-1H-1,2,3-triazole] as the compound, how does the melting point read?
**A.** The melting point was 115 to 116 °C.

**Q.** For `Cc1ccccc1/C=C/c1nc(COc2ccc(CCCCn3ccnc3CCO)cc2)co1` [Reference Example B12, 2-[1-[4-[4-[[2-[(E)-2-(2-methylphenyl)ethenyl]-1,3-oxazol-4-yl]methoxy]phenyl]butyl]-1H-imidazol-2-yl]-1-ethanol], which melting point is on record?
**A.** The melting point was 91 to 93 °C.

**Q.** Which melting point does the source give for `OCCc1nccn1CCCCc1ccc(OCc2coc(/C=C/c3ccc(F)cc3F)n2)cc1` [Reference Example B19, 2-[1-[4-[4-[[2-[(E)-2-(2,4-difluorophenyl)ethenyl]-1,3-oxazol-4-yl]methoxy]phenyl]butyl]-1H-imidazol-2-yl]-1-ethanol] here?
**A.** Its melting point is 93 to 95 °C.

**Q.** For `OCC(O)Cc1nccn1CCCCc1ccc(OCc2coc(/C=C/c3ccc(F)cc3F)n2)cc1` (stereo not shown) [Reference Example B26, 3-(1-{4-[4-({2-[(E)-2-(2,4-difluorophenyl)ethenyl]-1,3-oxazol-4-yl}methoxy)phenyl]butyl}-1H-imidazol-2-yl)-1,2-propanediol], which melting point is on record?
**A.** Its melting point is 126 to 128 °C.
